Results: patent US20050025830A1, “Drug delivery device comprising an active compound and method for releasing an active compound from a drug delivery device” (Technische Universiteit Eindhoven, priority 2003, published 2005)

How the values were obtained:
[1] = Ultrasound-induced release of ibuprofen from polymer disc into physiological buffer; type: physicochemical; conditions: PLAGA 50/50 disc, ibuprofen 10% (m/m)
Description: An object consisting of a pressed circular disc with a diameter of 2 cm and thickness of 2 mm was provided with a thermocouple in the middle and was then placed in a holder in a vessel containing 0.5 litre physiological buffer. […] The PLAGA was purchased from Purac Biochem, The Netherlands. The glass transition temperature of the matrix of poly(lactic acid-co-glycolic acid) used was 12.7° C. (as compared to Example 1 where a Tg of 43° C. is disclosed. This decrease of the Tg is the result of a higher loading of ibuprofen). The disc was irradiated perpendicularly to the surface with a beam of ultrasonic sound with a power of 4 W and a frequency of 10^6 Hz (1 MHz), the probe for generating the ultrasound being 28 mm away from the disc. The speed of the release of ibuprofen into the physiological buffer was determined as a function of time. Both the temperature of the buffer and the temperature in the disc were measured continuously. The irradiation with ultrasonic sound was applied in an alternating manner, periods of irradiation of 120 minutes being alternated with periods of 60 minutes without irradiation.

[2] = Concentration of ibuprofen in blood after subcutaneous implantation of disc and alternating ultrasound irradiation; type: in vivo; conditions: p(BMA-MMA) disc, ibuprofen 3% (m/m), Lewis rat
Text: A pressed circular disc of p(BMA-MMA) with ibuprofen incorporated in the matrix with a mass ratio of 3% (m/m), as described in example 1, was implanted subcutaneously in a Lewis rat. On both sides of the disc a thermocouple was implanted to continuously measure the temperature at the surface of the disc. One hour after implantation the disc was irradiated perpendicularly to the surface with a beam of ultrasonic sound with a power of 0.7 W, a frequency of 10^6 Hz (1 MHz), and a duty cycle of 70%, the probe for generating the ultrasound touching the skin of the rat. A standard physiotherapeutic hydrogel was used in between the skin and the probe. The irradiation with ultrasonic sound was applied in an alternating manner, periods of irradiation of 30 minutes being alternated with periods of 30 minutes without irradiation.
Blood samples were taken each 10 minutes during irradiation and each 20 minutes in the periods without irradiation to determine concentration of ibuprofen in the blood stream as a function of time. After 30 minutes irradiation the concentration of ibuprofen was 0.9 μg/ml, after irradiation the plasma concentration went below 0.01 μg/ml.

[3] = Release of active compound from pressed polymer disc into physiological buffer in shaking bath at 20° C. and 50° C.; type: physicochemical; conditions: p(BMA-MMA) disc with 75 mol % pBMA, ibuprofen 5% (m/m)

- speed of release of ibuprofen from the disc ([1]; without irradiation (base value), 8° C.): less than 1×10^−7 gram/minute
- plasma concentration of ibuprofen ([2]; after irradiation (period without irradiation)): below 0.01 μg/ml
- concentration at 30 min ([2]; blood, sc, after 30 minutes irradiation (0.7 W, 1 MHz, duty cycle 70%), read-out: concentration of ibuprofen in the blood stream): 900 ng/mL
- release rate of ibuprofen into the physiological buffer ([3]; 20° C.): 0.36 nmol/h
- release rate of ibuprofen into the physiological buffer ([3]; 50° C.): 10 nmol/h
Compound: CC(C)Cc1ccc(C(C)C(=O)O)cc1 (stereo not drawn) [ibuprofen]
- release of ibuprofen after stopping the irradiation [1]: fell virtually immediately to the base value
